Source: paper PMC12363342, “Investigating the N-terminal linker histone H1 subtypes as substrates for JmjC lysine demethylases” (RSC Chemical Biology, 2025)
Square brackets hold non-standard residues; d marks the D form. Ends that are not written are not given here. Lys(Me3) = C[N+](C)(C)CCCC[C@H](N)C(=O)O

Key:
[1] = molecular target: T1, KDM4E (Homo sapiens, UniProt B2RXH2); experiment: formaldehyde dehydrogenase (FDH)-coupled demethylation assay, KDM4E; type: biochemical; conditions: KDM4E (400 nM); for Km / kcat (KDM4E) / kcat/KM (KDM4E): FDH-coupled fluorescence assay, peptide 1–50 μM, HEPES pH 7.5; for Km / kcat (KDM4E): FAS 20 μM, LAA 200 μM, 2OG 200 μM, NAD+ 500 μM, FDH 2.0 μM, mean ± SEM (n = 3); for kcat/KM (KDM4E): catalytic efficiency; for substrate inhibition in Michaelis-Menten kinetics (KDM4E): FDH-coupled assay, Fig. S25
T1 construct: KDM4DM1-L359,[39]; KDM4EM1-R336,[30]; His6 (N); made in house; host or cells: Escherichia coli
T1 sequence (B2RXH2 1-336): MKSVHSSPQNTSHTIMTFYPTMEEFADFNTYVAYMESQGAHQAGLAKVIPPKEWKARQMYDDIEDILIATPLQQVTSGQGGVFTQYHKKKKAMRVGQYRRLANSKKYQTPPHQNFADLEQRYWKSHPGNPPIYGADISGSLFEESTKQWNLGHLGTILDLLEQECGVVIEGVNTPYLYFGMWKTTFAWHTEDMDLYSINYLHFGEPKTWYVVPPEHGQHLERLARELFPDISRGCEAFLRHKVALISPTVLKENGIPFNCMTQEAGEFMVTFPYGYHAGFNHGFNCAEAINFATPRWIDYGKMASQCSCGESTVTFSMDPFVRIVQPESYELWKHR
Protocol: Kinetic parameters were determined by recording the initial reaction rates of NADH production at varying histone peptide concentrations (Fig. S24 and S25).
Kinetic parameters for demethylation of N^ε-trimethylated H1 peptides by KDM4D and KDM4E (400 nM) measured using a formaldehyde dehydrogenase-coupled demethylation assay. H1 peptide (1–50 μM), FAS (20 μM), LAA (200 μM), 2OG (200 μM), NAD^+ (500 μM), KDM4 enzyme (0.8 μM) and FDH (2.0 μM) in HEPES buffer at pH 7.5.
Substrate Km values for KDM4 enzymes were determined using a reported formaldehyde dehydrogenase/NAD coupled enzyme assay that quantifies formaldehyde production.[30] In brief, DNA encoding for wild-type full-length formaldehyde dehydrogenase was synthesised (by GenScript) and cloned into the pET-28B vector. The resultant plasmid was then transformed into the Rosetta strain of Escherichia coli. Coupled enzyme-assays were carried out in black polystyrene 384-well non-binding surface microplates (Corning) and kinetic measurements were obtained using a PHERAstar FS plate reader (BMG Labtech) equipped with a 350 nm excitation and 460 nm emission optic module.[30] All steps were performed in the assay buffer (50 mM HEPES pH 7.5, 0.01% (v/v) Tween-20). Substrate mixtures were prepared freshly and contained FAS (20 μM), LAA (200 μM), 2OG (200 μM), NAD^+ (500 μM), and H1 peptide (1–50 μM); they were dispensed (25 μL final volume) in triplicate. Assays were initiated by plate reader injection of 25 μL of a mixture of KDM4 (0.8 μM) and formaldehyde dehydrogenase (FDH) (2.0 μM) in assay buffer (50 mM HEPES pH 7.5, 0.01% (v/v) Tween-20). Production of NADH was measured at 60 second intervals over 25 cycles. Kinetic parameters were determined from the reaction rate during the initial linear phase of formaldehyde production, and specific activities were calculated from a formaldehyde standard curve and fitted to the Michaelis–Menten equation using GraphPad Prism Version 5.0 (GraphPad software, La Jolla, CA, USA). Each assay was carried out in triplicate with independently prepared reaction mixtures.

[2] = molecular target: T2, KDM4D (Homo sapiens, UniProt Q6B0I6); experiment: time-course 1H NMR assay of succinate production, KDM4D; type: biochemical; conditions: KDM4D 10 μM, 2OG 400 μM, peptide 400 μM; for oxidation of H1 peptide by KDM4D (succinate production arising from 2OG oxidation): 1H NMR 700 MHz, 298 K, Fe(II) 100 μM, L-ascorbate 1 mM, 50 mM Tris-d11 pH 7.5, 60 min, two independent experiments; for succinate production rate with KDM4D, relative: 1H NMR time course, pH 7.5, compared to H1.4K25me3
T2 construct: KDM4AM1-L359,[38]; KDM4DM1-L359,[39]; KDM4EM1-R336,[30]; His6 (N); made in house; host or cells: Escherichia coli
T2 sequence (Q6B0I6 1-359): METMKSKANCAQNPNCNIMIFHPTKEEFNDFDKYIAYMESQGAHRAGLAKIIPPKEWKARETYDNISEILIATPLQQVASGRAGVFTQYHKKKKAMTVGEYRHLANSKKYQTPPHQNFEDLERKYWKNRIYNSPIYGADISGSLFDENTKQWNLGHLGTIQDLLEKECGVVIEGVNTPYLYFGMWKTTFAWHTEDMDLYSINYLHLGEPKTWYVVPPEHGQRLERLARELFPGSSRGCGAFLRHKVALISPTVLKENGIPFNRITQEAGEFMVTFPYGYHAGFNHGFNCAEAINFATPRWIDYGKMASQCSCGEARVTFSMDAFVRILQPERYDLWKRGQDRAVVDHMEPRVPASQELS
From the text: Fig. 6 Time-course ^1H NMR analysis for reactions of KDM4D with H1 peptides. (A) KDM4D-catalysed succinate production for H1.3K24me3 (turquoise), H1.4K25me3 (raspberry), and H1.5K26me3 (khaki) compared to that without peptides (black). (B) KDM4D in the presence of 2OG without the H1 peptide; note that only low-level succinate production is observed. (C) Production of succinate measured for KDM4D/H1.3K24me3 over time, as evidenced by increasing integration of the singlet at δ^1H 2.31 ppm (corresponding to the succinate methylenes). Assay conditions are described in the Experimental details section.
NMR spectra were acquired at 298 K using a Bruker AVIII 700 MHz NMR spectrometer equipped with a TCI helium-cooled CryoProbe. Data were processed using TopSpin v.3.6.2 software. Signal intensities were calibrated relative to TSP, δH 0 ppm, and the chemical shifts (ppm) are relative to the resonance of the solvent, δH 4.7 ppm. Assay mixtures contained KDM4D (10 μM), 2OG (400 μM), H1_20–34 peptide (400 μM), Fe(II) ammonium sulfate (100 μM), L-ascorbate (1 mM) and internal standard, 3-(trimethylsilyl)-2,2,3,3-tetradeuteropropionic acid (TSP, 800 μM) in 50 mM Tris-d11, pH 7.5. Aqueous stocks of 2OG, Fe(II) ammonium sulfate and L-ascorbate were prepared fresh on the day of testing. Samples were transferred to 3-mm diameter MATCH NMR tubes (CortecNet) and monitored by ^1H excitation sculpting with baseline optimisation using 16 transients. The time lapse between sample mixing and data acquisition was 6–7 min. The spectra were acquired every 2 min over 60 min. Starting material and product concentrations were quantified relative to the TSP concentration. Samples from two independent experiments were analysed by NMR spectroscopy.

Substance | Km [1] | kcat (KDM4E) [1] | kcat/KM (KDM4E) [1] | substrate inhibition in Michaelis-Menten kinetics (KDM4E) [1] | oxidation of H1 peptide by KDM4D (succinate production arising from 2OG oxidation) [2] | succinate production rate with KDM4D, relative [2]
KKKAAK[Lys(Me3)]AGGTPRKA [Peptide H1.2K26me3, 15-mer linker histone H1.2 residues 20-34 peptide, tri-methylated K26] | 5.22 ± 0.54 µM | 0.0313 ± 0.0015 s⁻¹ | 6000 M⁻¹ s⁻¹ |  |  | 
KKKAA[Lys(Me3)]KAGGTPRKA [Peptide H1.2K25me3, 15-mer linker histone H1.2 residues 20-34 peptide, tri-methylated K25] | 18.5 ± 6.87 µM | 0.0767 ± 0.0218 s⁻¹ | 4120 M⁻¹ s⁻¹ | evidence for substrate inhibition |  | 
KKKAR[Lys(Me3)]SAGAAKRKA [Peptide H1.4K25me3, 15-mer linker histone H1.4 residues 20-34 peptide, tri-methylated K25] | 11.5 ± 3.19 µM | 0.0435 ± 0.00783 s⁻¹ | 3770 M⁻¹ s⁻¹ | evidence for substrate inhibition | clear evidence for oxidation | 
KKKATK[Lys(Me3)]AAGAGAAK [Peptide H1.5K26me3, 15-mer linker histone H1.5 residues 20-34 peptide, tri-methylated K26] | 4.04 ± 0.51 µM | 0.0218 ± 0.0013 s⁻¹ | 5400 M⁻¹ s⁻¹ |  | clear evidence for oxidation | slightly slower succinate production compared to H1.4K25me3
KKKA[Lys(Me3)]KAGATAGKRK [Peptide H1.3K24me3, 15-mer linker histone H1.3 residues 20-34 peptide, tri-methylated K24] | 6.45 ± 1.51 µM | 0.0333 ± 0.00417 s⁻¹ | 5170 M⁻¹ s⁻¹ |  | clear evidence for oxidation | slightly slower succinate production compared to H1.4K25me3
